# According to patent US11873298B2, “Compounds and uses thereof” (JANSSEN PHARMACEUTICA NV, priority 2017, dated 2024):
# Columns and labels:
# SCD5 = biological target: T1, SCD5 (Homo sapiens, UniProt Q86SK9); assay: Growth inhibition of humanized yeast strain expressing SCD5 as sole desaturase; type: cell-based
# T1 construct: host or cells: S. cerevisiae ole1Δ strain (W303 pdr1Δ pdr3Δ background), plasmid pRS316 with TDH3 promoter and CYC1 terminator
# T1 sequence (Q86SK9 1-330): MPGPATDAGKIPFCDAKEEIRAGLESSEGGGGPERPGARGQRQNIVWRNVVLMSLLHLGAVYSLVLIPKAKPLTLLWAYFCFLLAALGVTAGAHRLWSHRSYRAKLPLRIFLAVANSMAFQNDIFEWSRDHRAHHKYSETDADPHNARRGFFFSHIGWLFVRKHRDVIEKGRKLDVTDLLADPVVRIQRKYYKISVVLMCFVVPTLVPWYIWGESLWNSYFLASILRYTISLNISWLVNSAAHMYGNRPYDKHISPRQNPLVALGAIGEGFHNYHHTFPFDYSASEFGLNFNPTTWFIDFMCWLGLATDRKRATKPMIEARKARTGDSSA
# Experimental: (§1) Strain oleΔ (yeast ole1 deletion mutant) was constructed by deleting OLE1 with NAT-MX6 in BY4741, amplifying the deletion cassette from the genomic DNA of the resulting strain with primers flanking the ORF by 1000 bp upstream and downstream, transforming the resulting deletion cassette into W303 pdr1Δ pdr3Δ, and plating transformants on YPD media containing G418 (200 μg/mL) and nourseothricin ([…]) with 0.01% TWEEN®-20 and 0.5 mM oleic and palmitoleic acids.
# (§2) The coding sequence of yeast OLE1 was also cloned into this plasmid). These clones were then transformed into the ole1Δ strain and plated on CSM-Ura media (CSM lacking uracil) with 2% glucose (w/v) and independent colonies were isolated and amplified.
# (§3) All compound profiling experiments were performed using the same basic protocol. Different genetic backgrounds (e.g., gene deletions) or conditions (e.g., addition of oleic and palmitoleic acid) were replaced as indicated below.
# (§4) Yeast were cultured using standard techniques in complete synthetic media (CSM) and yeast nitrogen base supplemented with 2% (w/v) carbon source (glucose, raffinose, or galactose) to regulate the expression of the toxic disease protein. An initial starter culture was inoculated in 3 mL CSM-Glucose media and incubated overnight in a 30° C. shaker incubator (225 rpm). Saturated morning cultures were then diluted 1:20 in fresh CSM-Raffinose media and grown for 6 h to an OD600 (optical density) of ˜0.4-0.8 at 30° C. with shaking.
# (§5) Compound administration was performed in two separate steps. First, 15 μL of CSM-Galactose (induces expression of toxic protein) was dispensed into clear 384 well assay plates using a MULTIDROP™ Combi reagent dispenser. […] The cultures described above were then diluted to a 2× concentration (0.03 and 0.08 for alpha-synuclein and ApoE, final ODsoo of 0.015 and 0.04) in CSM-Galactose. For wild-type and Ole1/SCD1/SCD5 plasmid-containing strains, the 2× cell density was 0.02. […] For 96-well assays (FIGS. 1A and 1B), compound dilutions in DMSO were generated in 96 well plates and 1 μL was manually pipetted into 96 well clear bottom assay plates.
# (§6) For experiments using a plasmid-borne copy of Ole1, SCD1, or SCD5 (FIGS. 3B, 6, and 7), media lacking uracil (SX-Ura, where X is glucose, raffinose, or galactose), was used for all steps of the compound profiling protocol to ensure its maintenance throughout the assay.
# (§7) After yeast delivery, assay plates were incubated under humidified conditions at 30° C. for 24 to 40 h. ApoE4 rescue experiments were stopped at 24 h, aSyn experiments at 40 h, Ole1 at 24 h, and SCD1/SCD5 at 40 h. The growth of yeast was monitored by reading the ODsoo of each well using a microplate reader (Perkin Elmer EnVision™).
# SCD1 = biological target: T2, SCD1 (Homo sapiens, UniProt O00767); assay: Growth inhibition of humanized yeast strain expressing SCD1 as sole desaturase; type: cell-based; settings: yeast strain expressing human SCD1 as sole desaturase; Table 8
# T2 construct: host or cells: S. cerevisiae ole1Δ strain (W303 pdr1Δ pdr3Δ background), plasmid pRS316 with TDH3 promoter and CYC1 terminator
# T2 sequence (O00767 1-359): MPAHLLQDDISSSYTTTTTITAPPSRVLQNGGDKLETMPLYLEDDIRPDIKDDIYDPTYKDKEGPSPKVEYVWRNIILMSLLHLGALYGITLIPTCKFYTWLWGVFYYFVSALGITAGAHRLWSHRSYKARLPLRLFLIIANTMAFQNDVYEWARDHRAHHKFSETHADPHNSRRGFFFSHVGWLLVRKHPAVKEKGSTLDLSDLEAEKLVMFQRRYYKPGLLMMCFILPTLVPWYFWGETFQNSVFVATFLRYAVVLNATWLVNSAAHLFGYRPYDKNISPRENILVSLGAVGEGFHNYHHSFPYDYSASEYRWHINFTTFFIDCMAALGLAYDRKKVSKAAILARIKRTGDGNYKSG
# Experimental: as §1, §2, §3, §4, §5, §6, §7
# [1] = yeast strain expressing human SCD5 as sole desaturase, Table 8
# [2] = humanized yeast strain expressing SCD5
Compound,IC50 (SCD5; [1]) [nM],IC50 (SCD5; [2]) [nM],further results
O=C(C1CCC1)N1CCC(c2noc(-c3ccnc([C@@H]4CCOC4)c3)n2)CC1 [Compound 1242],380,,
CC(C)C(=O)N1CCC(c2noc(-c3ccc(F)c(N4CCOC5(CC5)C4)c3)n2)CC1 [Compound 1302],900,,
O=C(C1CCC1)N1CCC(c2cc(-c3cnc4cnn(C5COC5)c4c3)on2)CC1 [Compound 1232],7840,,
CC(C)(C)OC(=O)N1CCC(c2noc(-c3ccnc(-c4cocn4)c3)n2)CC1 [Compound 1293],490,,
Cc1cc(-c2nc(C3CCN(C(=O)OC(C)(C)C)CC3)no2)cc(C2CCOC2)n1 (stereo not shown) [Compound 1266],,,IC50 (SCD1): 31700 nM
Cc1noc2cc(-c3noc(C4CCN(C(=O)OC5(C)CC5)CC4)n3)ccc12 [Compound 590],,> 45000,
O=C(OC1CCC1)N1CCC(c2noc(-c3cc(C4CCOC4)ncn3)n2)CC1 (stereo not shown) [Compound 1312],20,,
CC(C)(C)OC(=O)N1CCC(c2noc(-c3cc(F)c(F)c(N4CCOCC4)c3)n2)CC1 [Compound 1301],5180,,
O=C(C1CCC1)N1CCC(c2noc(-c3ccc(F)c(N4CCOCC4)c3)n2)CC1 [Compound 1258],40,,
CC(C)C(=O)N1CCC(c2cc(-c3cc4c(cn3)cnn4C3COC3)on2)CC1 [Compound 1226],20,,
CC(C)(C)OC(=O)N1CCC(c2noc(-c3ccc4cnn([C@H]5CCOC5)c4c3)n2)CC1 [Compound 1201],,,IC50 (SCD1): 1400 nM
O=C(c1ccccc1)N1CCC(c2nc(-c3ccc4cnn(C5COC5)c4c3)no2)CC1 [Compound 564],,4230,
CC(C)n1ncc2ccc(-c3noc(N4C[C@H]5CN(C(=O)CC(C)(C)C)C[C@H]5C4)n3)cc21 [Compound 497],,11300,
CC(C)CC(=O)N1CCC(c2cc(-c3cnc4cnn(C5COC5)c4c3)on2)CC1 [Compound 1231],16400,,
COCC(=O)N1CCN(c2nc(-c3ccc4cnn(C(C)C)c4c3)no2)CC1 [Compound 595],,> 45000,
CC(C)C(=O)N1CCC(c2noc(-c3cc(F)c(F)c(N4CCOCC4)c3)n2)CC1 [Compound 1304],11900,,
O=C(N1CCC(c2nc(-c3ccnc(C4CCOC4)c3)no2)CC1)C1(F)CC1 (stereo not shown) [Compound 1229],1510,,
CC(C)n1ncc2ccc(-c3noc(C4CCN(C(=O)[C@H]5CC(=O)N(c6cccc(C#N)c6)C5)CC4)n3)cc21 [Compound 529],,> 45000,
COC(=O)N1CCN(c2cc(-c3ccc4cnn(C5COC5)c4n3)on2)CC1 [Compound 1238],24600,,
CC(C)n1ncc2ccc(-c3nc(C4CCN(C(=O)CC5(C)CC5)CC4)no3)cc21 [Compound 546],,19,
CC(C)n1ncc2ccc(N3CC4(CCNCC4)C3)cc21 [Compound 538],,> 45000,
CC(C)n1ncc2ccc(-c3noc(C4CCN(C(=O)c5cccs5)CC4)n3)cc21 [Compound 574],,2280,
COC(=O)N1CCC(c2nc(-c3ccc4cnn(C(F)F)c4c3)no2)CC1 [Compound 561],,29400,
CC1(C(=O)N2CCC(c3cc(-c4cc5c(cn4)cnn5C4COC4)on3)CC2)CC1 [Compound 1237],70,,
CC1(OC(=O)N2CCC(c3noc(N4CCc5cnn(C6COC6)c5C4)n3)CC2)CC1 [Compound 1224],60,,
